Assay results reported in publication PMC12005229, “Final results from the phase Ia/Ib study of the novel bromodomain and extra-terminal domain inhibitor, BI 894999, in patients with advanced solid tumors or diffuse large B-cell lymphoma” (ESMO Open, 2025).
“And” between values parts separate entries of the source, which are not always exact repeats. Equal values may be shown once. “Also recorded” adds a separate entry of the source. Read-outs that look alike come from different tables or passages of the source.

Key:
patients with DLBCL = test: phase Ia DLBCL extension: DLTs, MTD, adverse events, exposure; assay type: in vivo; details: for DLT grade ≥3 / DLT / DLT duration / DLT grade / DLT outcome: individual patient events
Text: The extension to the phase Ia dose escalation evaluated schedules B and C for patients with DLBCL.

[1] = system: HEXIM1, HIST2H2BF, and CCR2; test: NanoString gene expression in blood (target engagement); assay type: in vivo, human
Experimental: The evaluation of biomarkers to identify patient subgroups with differential prognosis or response to treatment was exploratory, with no formal endpoints defined. Blood samples were assessed using an in-house-designed NanoString panel (NanoString, Seattle, WA) measuring gene expression levels of HEXIM1, HIST2H2BF, and CCR2 over all time points, and postdose expression levels of HEXIM1, HIST2H2BF, and CCR2 on days 14 and 15. HEXIM1 is modulated by BET family proteins and is considered a robust pharmacodynamic marker of BET inhibition,[30] whereas HIST2H2BF and CCR2 are involved in cancer pathways.[31]^,[32]
Total RNA was extracted from whole blood using PAXgene Blood RNA kit (Qiagen, Hilden, Germany) following the manufacturer’s instructions. Total RNA was quantified by direct absorbance measurement at 260 nm using a NanoDrop Spectrophotometer (Thermo Fisher, Waltham, MA). Quality check was carried out by additional measurement of absorbance at 280 nm and calculation of the absorbance ratio OD260/OD280.
mRNA expression was assessed using a custom nCounter® (NanoString, Seattle, WA) codeset generated for the genes of interest plus housekeeping genes. Probes were hybridized to 150 ng of total RNA for 19 h at 65°C and applied to the nCounter® Preparation Station for automated removal of excess probe and immobilization of probe–transcript complexes on a streptavidin-coated cartridge. Data were collected using the nCounter® Digital Analyzer by counting the individual barcodes. Data were analyzed using an in-house analysis pipeline that follows the latest NanoString Technologies standards for the analysis of nCounter® data. The analysis pipeline includes quality checking of the raw data using the NAnostring quality Control dasHbOard (NACHO), a comprehensive method to optimize the quality control of nCounter® data.[33] The housekeeping genes ACTB, GAPDH, HPRT1, MGAT1, and TMED9 were used for normalization.

[2] = system: nuclear protein in testis (NUT) carcinoma xenograft models; parameters: method as in PMID 35444289; details: cited from earlier work
[3] = system: patients with solid tumors; parameters: method as in PMID 37556913; details: cited from earlier work; for maximum tolerated dose (MTD): solid tumors
[4] = DLBCL phase Ia extension n = 18
[5] = DLBCL, on-treatment period, schedule B 2.0 mg
[6] = DLBCL, on-treatment period, schedule C 4.0/2.0 mg
[7] = DLBCL, on-treatment period, schedule C 5.0/2.5 mg
[8] = DLBCL, schedule B 1.5 mg, MTD evaluation period
[9] = DLBCL, schedule B 2.0 mg, MTD evaluation period
[10] = DLBCL, schedule B 2.5 mg, MTD evaluation period
[11] = phase Ia DLBCL, MTD evaluation period

## CNc1nc(-c2nc3ccc(N4CCN(C)CC4)cc3n2Cc2ccccc2)cn2c(C)nnc12 [BI 894999]
Patients with DLBCL; [4]
  AEs leading to death: 1 (5.6) n (%)
  AEs leading to discontinuation of trial drug: 4 (22.2) n (%)
  AEs leading to dose reduction: 3 (16.7) n (%)
  Any AE: 18 (100) n (%)
  DLT in on-treatment period: 8 (44.4) n (%)
  Treatment-related AEs: 15 (83.3) n (%)
  Treatment-related serious AEs: 2 (11.1) n (%)
Patients with DLBCL; DLBCL phase Ia n = 18
  Anemia, treatment-related AE, any grade: 5 (27.8) n (%)
  Anemia, treatment-related AE, grade ≥3: 5 (27.8) n (%)
  Asthenia, treatment-related AE, any grade: 2 (11.1) n (%)
  Asthenia, treatment-related AE, grade ≥3: 0 n (%)
  Decreased appetite, treatment-related AE, any grade: 4 (22.2) n (%)
  Decreased appetite, treatment-related AE, grade ≥3: 0 n (%)
  Decreased platelet count, treatment-related AE, any grade: 2 (11.1) n (%)
  Decreased platelet count, treatment-related AE, grade ≥3: 2 (11.1) n (%)
  Diarrhea, treatment-related AE, any grade: 9 (50.0) n (%)
  Diarrhea, treatment-related AE, grade ≥3: 0 n (%)
  Dysgeusia, treatment-related AE, any grade: 2 (11.1) n (%)
  Dysgeusia, treatment-related AE, grade ≥3: 0 n (%)
  Epistaxis, treatment-related AE, any grade: 2 (11.1) n (%)
  Epistaxis, treatment-related AE, grade ≥3: 0 n (%)
  Fatigue, treatment-related AE, any grade: 4 (22.2) n (%)
  Fatigue, treatment-related AE, grade ≥3: 0 n (%)
  Hematoma, treatment-related AE, any grade: 2 (11.1) n (%)
  Hematoma, treatment-related AE, grade ≥3: 0 n (%)
  Muscle spasms, treatment-related AE, any grade: 2 (11.1) n (%)
  Muscle spasms, treatment-related AE, grade ≥3: 0 n (%)
  Nausea, treatment-related AE, any grade: 5 (27.8) n (%)
  Nausea, treatment-related AE, grade ≥3: 0 n (%)
  Neutropenia, treatment-related AE, any grade: 4 (22.2) n (%)
  Neutropenia, treatment-related AE, grade ≥3: 3 (16.7) n (%)
  Thrombocytopenia, treatment-related AE, any grade: 11 (61.1) n (%)
  Thrombocytopenia, treatment-related AE, grade ≥3: 8 (44.4) n (%)
  Troponin increased, treatment-related AE, any grade: 2 (11.1) n (%)
  Troponin increased, treatment-related AE, grade ≥3: 1 (5.6) n (%)
Patients with DLBCL; DLBCL, on-treatment period, schedule B 1.5 mg
  DLT grade ≥3: Increased troponin
Patients with DLBCL; [5]
  DLT duration, melena: 7 days
  DLT grade, melena: 3
  DLT grade ≥3: Thrombocytopenia; also recorded: Melena
Patients with DLBCL; DLBCL, on-treatment period, schedule B 2.5 mg
  DLT grade ≥3: Thrombocytopenia; also recorded: Sepsis; also recorded: Febrile neutropenia
Patients with DLBCL; [6]
  DLT grade, decreased platelet count: 4
  DLT grade ≥3: Decreased platelet
Patients with DLBCL; [7]
  DLT duration, thrombocytopenia: 8 days
  DLT grade, neutropenia: 4
  DLT grade, thrombocytopenia: 4
  DLT grade ≥3: Neutropenia; also recorded: Thrombocytopenia
Patients with DLBCL; [8]
  DLT: Increased troponin
  DLT duration: 5 days
  DLT grade: 3
  DLT outcome: Recovered
Patients with DLBCL; [9]
  DLT: Thrombocytopenia
  DLT duration: 11 days
  DLT grade: 4
  DLT outcome: Not recovered
Patients with DLBCL; [10]
  DLT: Thrombocytopenia; also recorded: Sepsis; also recorded: Febrile neutropenia
  DLT duration: 5 days and 6 days and 7 days and 2 days
  DLT grade: 4 and 3
  DLT outcome: Not recovered; also recorded: Recovered
Patients with DLBCL; DLBCL, schedule B (days 1-14/21)
  maximum tolerated dose (MTD): 1.5 mg
Patients with DLBCL; DLBCL, schedule C
  maximum tolerated dose (MTD): not declared
Patients with DLBCL; phase Ia DLBCL
  anemia, grade ≥3 treatment-related AE: 27.8%
  anemia, treatment-related AE of any grade: 27.8%
  decreased platelet count, grade ≥3 treatment-related AE: 11.1%
  decreased platelet count, treatment-related AE of any grade: 11.1%
  diarrhea, treatment-related AE of any grade: 50.0%
  discontinuation because of DLT: 11.1%
  discontinuation because of other AEs: 5.6%
  discontinuation because of progressive disease: 83.3%
  dose discontinuations due to AEs: 22.2%
  dose reductions due to AEs: 16.7%
  fatigue, treatment-related AE of any grade: 22.2%
  increased troponin, treatment-related AE of any grade: 11.1%
  lymph node pain leading to dose discontinuation: 5.6%
  median time to first dose reduction: 36.0 days
  nausea, treatment-related AE of any grade: 27.8%
  neutropenia leading to dose discontinuation: 5.6%
  neutropenia, grade ≥3 treatment-related AE: 16.7%
  neutropenia, treatment-related AE of any grade: 22.2%
  patients who underwent dose reductions: 16.7%
  patients with AEs of any grade: 100%
  patients with treatment-related AEs: 83.3%
  thrombocytopenia leading to dose discontinuation: 11.1%
  thrombocytopenia, grade ≥3 treatment-related AE: 44.4%
  thrombocytopenia, treatment-related AE of any grade: 61.1%
Patients with DLBCL; [11]
  DLT grade 3 febrile neutropenia: 7.7%
  DLT grade 3 increased troponin: 7.7%
  DLT grade 4 sepsis: 7.7%
  DLT grade 4 thrombocytopenia: 23.1%
  assessable patients with DLTs: 4/17
Patients with DLBCL; phase Ia DLBCL, schedule B
  total patients with DLTs during the on-treatment period: 5 n
Patients with DLBCL; phase Ia DLBCL, schedule B 1.5 mg, MTD evaluation period
  patients with DLTs: 1 n
Patients with DLBCL; phase Ia DLBCL, schedule B 2.0 mg, MTD evaluation period
  patients with DLTs: 1 n
Patients with DLBCL; phase Ia DLBCL, schedule B 2.5 mg, MTD evaluation period
  patients with DLTs: 2 n
Patients with DLBCL; phase Ia DLBCL, schedule B (n = 13), MTD evaluation period
  patients with DLTs: 30.8%
Patients with DLBCL; phase Ia DLBCL, schedule C
  total patients with DLTs during the on-treatment period: 3 n
Patients with DLBCL; phase Ia DLBCL, schedule C, MTD period
  patients with DLTs: No patients receiving schedule C experienced DLTs; also recorded: a No DLBCL patients on schedule C experienced DLTs on BI 894999
[1]; phase Ia DLBCL patient blood samples
  target engagement (≥2 of 3 genes with twofold or greater change): target engagement was seen at all dose levels
[1]; phase Ib, NUT carcinoma, blood
  HEXIM1 induction, median fold change from baseline: 1.93
[1]; phase Ib, blood samples from the various solid tumor entities
  target engagement (≥2 of 3 genes with twofold or greater change): all showed target engagement
[2]
  effect in NUT carcinoma xenograft models: tumor regressions
[3]; initial phase Ia, investigator's assessment
  disease control (CR, PR or SD): 26.0%
[3]; initial phase Ia
  best response PR: 3.9%
  patients with grade ≥3 DLTs: 22 of 77
[3]; schedule A (days 1-21 of 3-week cycle)
  maximum tolerated dose (MTD): 1.5 mg
[3]; schedule B (days 1-14 of 3-week cycle)
  maximum tolerated dose (MTD): 2.5 mg
